SMILES strings stand for the structures.

The record followed here is patent US8563552B2, “Whitening agent and skin external preparation” (Shiseido Company Ltd., priority 2008, dated 2013).

In one assay the test system is Mouse B16 melanoma cells. The assay can be described thus: Melanin production inhibition test. Conditions: 72 h; mouse B16 melanoma cells, three days after addition; minimum non-cytotoxic final concentration at which ratio of melanin amount was 80% or less; read-out: Inhibitory effect on melanin production. In kind it is cell-based. Here is the method: A test for melanin production inhibition by the compounds of the formula (1) was conducted. The test method is as follows.
Melanin Production Inhibition Test
(1) Inoculation of Cells and Addition of Test Substances
Mouse B16 melanoma cells were inoculated in a six well plate at 100,000 cells/well. The next day, test substance solutions (solvent: DMSO) were added.
(2) Cell Proliferation Test
Three days after the addition of the test substance solution, the medium was removed by aspiration. Then 1 ml of EMEM medium containing 10% Alamar Blue solution was added, and a reaction was allowed to proceed at 37° C. After 30 minutes, 100 μL of the reaction mixture was transferred to a 96 well plate and fluorescence was measured at an excitation wavelength of 544 nm and a measurement wavelength of 590 nm. Using the value thus measured as a relative value of cell count, a ratio of the cell count (% cell count) of the test substance-added group to the test substance-absent group (group in which only the solvent was added) was calculated. The higher the % cell count, the lower the cytotoxicity. It was determined that a compound having the % cell count of 80% or more was non-cytotoxic, and that a compound having the % cell count of less than 80% was cytotoxic.
(3) Quantification of Melanin
The cells after the cell proliferation test were washed with PBS three times, and then lysed by addition of 200 μL of 1M NaOH to measure an absorbance at 475 nm. Using the value thus measured as a: value of the melanin amount, a ratio of the melanin amount (%) of the test substance-added group to the test substance-absent group (group in which only the solvent was added) was calculated. The lower the ratio of the melanin amount, the higher the melanin production-inhibitory effect. […] The inhibitory effect on melanin production was evaluated according to the following criteria.
⊚: the minimum concentration for inhibition of melanin production was 1 ppm or less.
◯: the minimum concentration for inhibition of melanin production was more than 1 ppm and 10 ppm or less.
In the case of `Cc1cc(C)nc(-n2nc(C)cc2N)n1` [Compound 1], the minimal effective concentration was no more than 1 µg/mL.

Turning to `Cc1cc(N2CCOCC2)nc(-n2nc(C)cc2C)n1` [Compound 2], the minimal effective concentration is no more than 1 µg/mL.

Take `Cc1cc(N)n(-c2ncccn2)n1` [Compound 3]: the minimal effective concentration is 1 to 10 µg/mL.

Consider `Cc1cc(C)n(-c2ncccn2)n1` [Compound 4, 1-(pyrimidin-2-yl)-3,5-dimethylpyrazole], for which the minimal effective concentration is no more than 1 µg/mL.

As for `Cc1cc(S)nc(-n2nc(C)cc2C)n1` [Compound 6], the minimal effective concentration is no more than 1 µg/mL.

Regarding `CNc1cc(C)nc(-n2nc(C)cc2C)n1` [Compound 7], the minimal effective concentration was no more than 1 µg/mL.

As for `CCc1c(C)nn(-c2nc(C)cc(C)n2)c1O` [Compound 8], the minimal effective concentration was no more than 1 µg/mL.

Regarding `Cc1cc(C)nc(-n2nc(C)cc2O)n1` [Compound 11], the minimal effective concentration is 1 to 10 µg/mL.

On to `Cc1cc(C)nc(-n2cccn2)n1` [Compound 12, 2-(pyrazol-1-yl)-4,6-dimethylpyrimidine], for which the minimal effective concentration is 1 to 10 µg/mL.

For the molecule `COc1cc(OC)nc(-n2nc(C)cc2C)n1` [Compound 13], the minimal effective concentration is no more than 1 µg/mL.

Take `Cc1cc(N(C)C)nc(-n2nc(C)cc2C)n1` [Compound 14]: the minimal effective concentration was no more than 1 µg/mL.

As to `Cc1cc(C)nc(-n2nccc2C)n1` [Compound 17], the minimal effective concentration is no more than 1 µg/mL.

Regarding `Cc1cc(C)nc(-n2ccc(C)n2)n1` [Compound 18], the minimal effective concentration is no more than 1 µg/mL.

Consider `Cc1cc(N2CCOCC2)nc(-n2nc(C)c(C)c2C)n1` [Compound 20], for which the minimal effective concentration was no more than 1 µg/mL.

Regarding `CCc1cnc(-n2nc(C)cc2C)nc1` [Compound 21, 1-(5-ethylpyrimidin-2-yl)-3,5-dimethylpyrazole], the minimal effective concentration was no more than 1 µg/mL.

Take `Cc1ccnc(-n2nc(C)cc2C)n1` [Compound 22, 1-(4-methylpyrimidin-2-yl)-3,5-dimethylpyrazole]: the minimal effective concentration is no more than 1 µg/mL.

Consider `Cc1cnn(-c2nc(C)cc(C)n2)c1` [Compound 23], for which the minimal effective concentration was no more than 1 µg/mL.

`Cc1cc(C)nc(-n2ncc3c2/C(=C/c2ccc(Cl)cc2)CC3)n1` [Compound 30]: the minimal effective concentration is no more than 1 µg/mL.

Turning to `Cc1cc(C)n(-c2ccccc2)n1` [Compound 33, 1-phenyl-3,5-dimethylpyrazole], the minimal effective concentration lay in the range of 1 to 10 µg/mL.

`Cc1cc(C)n(-c2ccc(C)c(C)c2)n1` [Compound 34]: the minimal effective concentration was no more than 1 µg/mL.

Turning to `Cc1cc(C)cc(-n2nc(C)cc2C)c1` [Compound 35], the minimal effective concentration is no more than 1 µg/mL.

Consider `Cc1cccc(-n2nc(C)cc2C)c1` [Compound 36], for which the minimal effective concentration was no more than 1 µg/mL.

Consider `Cc1ccnc(-n2nc(C)cc2C)c1` [Compound 40, 1-(4-methylpyridin-2-yl)-3,5-dimethylpyrazole], for which the minimal effective concentration was 1 to 10 µg/mL.

Take `Cc1cc(C)nc(-n2ccnc2C)n1` [Compound 41]: the minimal effective concentration was no more than 1 µg/mL.

With `Cc1cn(-c2nc(C)cc(C)n2)cn1` [Compound 42], the minimal effective concentration is no more than 1 µg/mL.

Regarding `Cc1cc(C)nc(N2CC(C)CC(C)C2)n1` (centres unmarked) [Compound 45, N-(4,6-dimethylpyrimidin-2-yl)-3,5-dimethylpiperidine], the minimal effective concentration lay in the range of 1 to 10 µg/mL.

Still in this assay, the particulars now being: minimum concentration at which an inhibitory effect on melanin production was significantly exhibited in melanoma B16 cells.
Regarding `OC[C@H]1O[C@@H](Oc2ccc(O)cc2)[C@H](O)[C@@H](O)[C@@H]1O` [Arbutin, 4-hydroxyphenyl-β-D-glucopyranoside, reference compound], the “Minimum concentration (%)” value was 5 × 10^−4%.

As for `CNc1cc(C)nc(-n2nc(C)cc2C)n1` [Compound 7], the “Minimum concentration (%)” value is 3 × 10^−6%.

Consider `Cc1cc(N(C)C)nc(-n2nc(C)cc2C)n1` [Compound 14], for which the “Minimum concentration (%)” value was 3 × 10^−6%.
